Reference: ChEMBL document CHEMBL1156829 (Proc Natl Acad Sci U S A, 2008)

Assays:
Plasmodium falciparum [1] = test: NOVARTIS: Inhibition of Plasmodium falciparum 3D7 (drug-susceptible) proliferation in erythrocyte-based infection assay; assay type: functional, organism-based; details: Plasmodium falciparum, 3D7
Plasmodium falciparum [2] = test: NOVARTIS: Inhibition of Plasmodium falciparum W2 (drug-resistant) proliferation in erythrocyte-based infection assay; assay type: functional, organism-based; details: Plasmodium falciparum, W2; read-out: EC50
[3] = NOVARTIS: Cytotoxicity against human hepatocellular carcinoma cell line (Huh7); assay type: toxicity, cell-based, Huh-7; details: Huh7 cells (hepatocellular carcinoma cell line)

Row | SMILES | EC50 (Plasmodium falciparum [1]) [µM] | EC50 (Plasmodium falciparum [2]) [µM] | CC50 [3] [µM]
1 | CN(Cc1ccccc1)CC(O)COc1ccc(CNCCCN2CCCC2)cc1 (configuration not stated) | 2.38 | 2.56 | 59.8
2 | CCCCCCN(C(=O)c1ccc2ccccc2c1)C(CC)c1nc2ccccc2c(=O)n1-c1ccccc1OC (configuration not stated) | 0.641 | 0.631 | > 10
3 | CCC(=O)NCc1nc2ccccc2n1Cc1ccc(C)cc1 | > 12.5 | > 9.76 | > 100
4 | CC1(C)N=C(N)N=C(N)N1c1ccc(F)cc1 | 0.0218 | 1.86 | 51
5 | COc1ccc(C=Cc2ccc3ccccc3[n+]2C)cc1 | > 5.37 | 7.93 | > 100
6 | N=c1c2ccccc2nnn1-c1cccc(C(F)(F)F)c1 | 0.134 | 0.308 | > 10
7 | N=c1c2c(n(Cc3ccccc3)c3c1CCC3)CCC2 | 0.281 | 0.329 | 41.2
8 | Clc1ccc(OCc2nc3ccccc3n2CCc2ccccc2)cc1 | > 0.72 | 0.165 | > 10
9 | c1ccc2cc3c(N4CCN(CCCN5CCN(c6ccnc7cc8ccccc8cc67)CC5)CC4)ccnc3cc2c1 | 0.0794 | 0.417 | > 10
10 | Cc1ccc(-n2c(=S)sc3c(=O)n(-c4ccccc4)c(SCC(=O)c4ccccc4)nc32)cc1C | > 1.25 | 1.79 | > 10
11 | COC(=O)C1=C(C)Nc2[nH]c(=S)[nH]c(=O)c2C1c1ccccc1F (configuration not stated) | 1.28 | > 1.65 | > 10
12 | Cc1cc(C)c2c(c1)-c1c(ssc1=S)C(C)(C)N2C(=O)c1ccccc1 | 0.523 | 0.37 | > 100
13 | O=C(Nc1nc2ccccc2s1)c1ccc(S(=O)(=O)N2CCOCC2)cc1 | > 1.25 | > 0.0461 | > 10
14 | c1ccc2cc3c(N4CCN(CCN5CCN(c6ccnc7cc8ccccc8cc67)CC5)CC4)ccnc3cc2c1 | 0.176 | 0.228 | > 100
15 | N=c1n(Cc2ccccc2)c2ccccc2n1CC(O)c1ccc(Br)cc1 (configuration not stated) | 0.254 | 0.101 | 21.8
16 | CC[n+]1c(/C=C/C=C2\N(C)c3ccccc3C2(C)C)n(-c2ccccc2)c2cc(Cl)ccc21 | 0.287 | 0.53 | 1.69
17 | COc1ccc(C2CC(=O)C3=C(C2)NC(C)=C(C(=O)OC2CCCCC2)C3c2ccc([N+](=O)[O-])cc2)cc1OC (configuration not stated) | 0.194 | 0.0617 | > 100
18 | C=C[C@H]1CN2CC[C@H]1C[C@@H]2[C@@H](OC(=O)CC)c1ccnc2ccccc12 | 0.22 | 0.37 | > 10
19 | COC(=O)c1c(-c2c(F)cccc2Cl)noc1/C=C/Nc1ccc(OC)cc1 | 0.427 | > 1.25 | > 10
20 | Brc1ccc2c(c1)c1ccccc1n2CC1CO1 (configuration not stated) | 4.73 | 2.25 | 29.4
21 | O=C(Nc1ccc(NC(=O)Nc2ccc(C3=NCCN3)cc2)cc1)Nc1ccc(C2=NCCN2)cc1 | 0.305 | 0.276 | > 10
22 | CCOC(=O)c1c(C)[nH]c(C)c1S(=O)(=O)N1CCCC(C(=O)N2CCN(c3cccc(C)c3C)CC2)C1 (configuration not stated) | 5.26 | > 12.5 | > 100
23 | CCn1ccccc1=Nc1cccc[n+]1CC | 1.5 | 1.17 | > 73.2

Row | SMILES | EC50 (Plasmodium falciparum [1]) [µM] | EC50 (Plasmodium falciparum [2]) [µM] | CC50 [3] [µM]
24 | O=C(Nc1ccc(-c2nc3ccc(-c4nc5ccc(NC(=O)c6cccc7ccccc67)cc5[nH]4)cc3[nH]2)cc1)c1cccc2ccccc12 | 0.742 | 0.641 | > 100
25 | CC(C(=O)NN=C1CCN(C)CC1)N(c1ccccc1)S(C)(=O)=O (configuration not stated) | > 1.25 | 1.27 | > 10
26 | O=C(C1CCN(C(c2ccc(F)cc2)c2ccc(F)cc2)CC1)N1CCCC1 | > 0.586 | 0.447 | > 10
27 | Cc1ccnc(NC(c2ccc3ccccc3c2)c2ccc3cccnc3c2O)c1 (configuration not stated) | 6.75 | > 12.5 | > 100
28 | CC1=NOC(=O)/C1=C\c1cccs1 | > 1.25 | > 1.24 | > 10
29 | CCOC(=O)c1[nH]c(C)c(CNc2cccc(OC)c2)c1C | 1.51 | 1.2 | 6.98
30 | COc1ccc2nc(C)cc(NN=Cc3cccc(OC)c3O)c2c1 | 0.0251 | 0.0235 | 6.12
31 | Brc1ccc(-c2cn3c([n+]2-c2ccccc2)SCC3)cc1 | 0.335 | 0.303 | > 100
32 | O=C(Nc1ccc(F)c(F)c1)c1cc2cc(C3(O)CCN(Cc4ccccc4F)CC3)ccc2o1 | 1.5 | 1.85 | 12.8
33 | COc1ccc(C(=O)Nc2ccc(-c3nc4ccc(NC(=O)c5ccc(OC)cc5)cc4[nH]3)cc2)cc1 | 0.8 | 0.81 | 8.78
34 | Cc1cc(/C=C2\SC(=Nc3ccccc3)N(C3CCCCC3)C2=O)c(C)n1-c1ccc(Br)cc1 | 0.476 | > 0.542 | > 10
35 | CC(Oc1ccc(Cl)cc1Cl)c1nc(-c2ccc(NC(=O)c3ccco3)cc2)no1 (configuration not stated) | 0.313 | 0.551 | 35.6
36 | CCOC(=O)c1cnc2c(ccc3ccccc32)c1Nc1ccc(NC(C)=O)cc1 | 6.9 | 1.61 | > 100
37 | N=c1n(Cc2ccccc2)c2ccccc2n1CC(O)c1ccc(Cl)c(Cl)c1 (configuration not stated) | 0.214 | 0.0436 | 6.59
38 | CCOC(=O)C1(Cc2ccc(OC)cc2)CCN(C(=O)c2scc3c2OCCO3)CC1 | 0.264 | 0.199 | > 100
39 | C=CC(C)(CCC=C(C)C)c1ccc2c3c(c[nH]c13)CC(CO)NC(=O)C(C(C)C)N2C (configuration not stated) | 0.552 | 0.197 | > 10
40 | CC1(C)C(=O)C2(CCCCC2)C(=O)OC1/C=C/c1ccccc1 (configuration not stated) | > 1.25 | 0.0123 | > 10
41 | Cc1ccc(C(=O)Nc2ccc(-c3nc4ccc(NC(=O)c5ccc(C)cc5)cc4[nH]3)cc2)cc1 | 1.57 | > 5.78 | 1.89
42 | Cc1cc(/C=C2/SC(=Nc3ccccc3)NC2=O)c(C)n1-c1cccc([N+](=O)[O-])c1 | 0.395 | 0.556 | > 10
43 | CCCCN(CC(=O)Nc1cc(C(C)(C)C)nn1-c1ccc(Cl)cc1)C(=O)c1ccc(OC)cc1 | > 1.39 | 0.0527 | 5.08
44 | CN(CCCNc1ccnc2cc(Cl)ccc12)S(=O)(=O)c1ccc([N+](=O)[O-])cc1 | 0.24 | 0.217 | > 11.1
45 | O=C(Nc1ccc(Cl)c(Cl)c1)Nc1ccc(Cl)c(Cl)c1 | 1.03 | 0.46 | 20.2
46 | c1ccc(-c2cc(N3CCC4(CC3)OCCO4)nc(-c3ccccn3)n2)nc1 | 0.42 | 0.223 | > 10

Row | SMILES | EC50 (Plasmodium falciparum [1]) [µM] | EC50 (Plasmodium falciparum [2]) [µM] | CC50 [3] [µM]
47 | CC1N=C(c2ccc(NC(=O)c3ccc(C(=O)Nc4ccc(C5=NC(C)C(C)N5)cc4)cc3)cc2)NC1C (configuration not stated) | 0.0576 | 0.0148 | > 100
48 | CCOC(=O)c1c(C)oc2c1C(=O)c1ccccc1C2=O | 1.96 | 0.71 | 49.3
49 | S=C(NC1CCCCC1)NC1CC2CCC(C1)N2Cc1ccccc1 (configuration not stated) | 2.97 | 0.468 | 51.5
50 | COc1ccc(OC)c(-c2ccc(O)c(CNCCc3ccc(F)cc3)c2)c1 | 1.05 | < 0.0232 | > 10
51 | O=C(Nc1ccc(-c2nc3ccc(NC(=O)c4ccc(Br)cc4)cc3[nH]2)cc1)c1ccc(Br)cc1 | 0.315 | 0.413 | 4.19
52 | C(=C\c1ccccc1)/CNC1CCN(Cc2ccccc2)CC1 | 0.995 | 0.657 | > 10
53 | CCOC(=O)c1[nH]c(CSC#N)c(C(C)=O)c1C | > 1.25 | > 0.378 | > 10
54 | CC(C)N1CC=C(c2c[nH]c3ccccc23)CC1 | 0.206 | 0.637 | > 100
55 | CCOc1ccc(C2N(C)c3ccccc3N2C)cc1 | 0.249 | 0.344 | > 10
56 | COc1ccc(C(=O)C(C)[n+]2cccc3ccc4cccnc4c32)cc1 (configuration not stated) | 0.195 | > 0.577 | > 10
57 | Cc1ccccc1Cn1c(N2CCC(C(=O)NCc3ccccn3)CC2)nc2ccccc21 | 1.94 | 2.16 | > 100
58 | CCN(CC)CCNc1ccnc2ccc([N+](=O)[O-])cc12 | 0.0898 | 0.115 | > 100
59 | Cc1ccc(Nc2nc3c(N)nnc(N)c3nc2Nc2ccc(C)cc2)cc1 | 6.12 | 2.21 | 13.3
60 | CCN(CC)c1ccc(/C=C(/C#N)c2nc3ccccc3[nH]2)o1 | > 1.25 | > 0.702 | > 0.333
61 | CCC(COC)NC(=O)c1cn(C2CCCCC2)cc(C(=O)NC(C)(C)C)c1=O (configuration not stated) | 2.9 | 1.99 | > 100
62 | CCN(CC)c1nc(S)nc(NC(C)(C)C)n1 | > 12.5 | > 8.81 | > 100
63 | CC(C)Nc1ccc(Nc2ccnc3cc4ccccc4cc23)cc1 | 0.0318 | 0.277 | 5.4
64 | CCOC(=O)CCC(=O)Oc1cc(C(C)(C)C)nn1-c1ccc(Cl)c(Cl)c1 | > 1.23 | 0.203 | > 11.1
65 | Cc1ccc(C)c(S(=O)(=O)N=C2C=C(SCC(=O)O)C(=O)c3ccccc32)c1 | 3.6 | 0.527 | 17.7
66 | CCOc1ccc(N=C2NC(=O)SC2=C2C(=O)Nc3ccc(Br)cc32)cc1 | > 12.5 | 4.91 | > 100
67 | O=C(c1ccncc1)N1N=C(c2c(-c3ccccc3)c3cc(Br)ccc3[nH]c2=O)CC1c1ccccc1 (configuration not stated) | 0.144 | 1.54 | 8.7
68 | CCOC(=O)c1sc(=S)n(-c2ccc(N(C)C)cc2)c1N | > 1.19 | > 1.27 | > 10
69 | NS(=O)(=O)c1ccc(CCNC(=O)C=Cc2ccc3c(c2)OCO3)cc1 | > 7.76 | 3.39 | > 100
